Our source for the Ki values is BindingDB's records for doi:10.7270/Q20R9MZM (Merrell Dow Research Institute, 1990).

The structures appear in SMILES notation.

In the assay the target is T1, Prunasin hydrolase (Prunus dulcis, UniProt H9ZGD9).
T1 sequence (H9ZGD9 whole entry): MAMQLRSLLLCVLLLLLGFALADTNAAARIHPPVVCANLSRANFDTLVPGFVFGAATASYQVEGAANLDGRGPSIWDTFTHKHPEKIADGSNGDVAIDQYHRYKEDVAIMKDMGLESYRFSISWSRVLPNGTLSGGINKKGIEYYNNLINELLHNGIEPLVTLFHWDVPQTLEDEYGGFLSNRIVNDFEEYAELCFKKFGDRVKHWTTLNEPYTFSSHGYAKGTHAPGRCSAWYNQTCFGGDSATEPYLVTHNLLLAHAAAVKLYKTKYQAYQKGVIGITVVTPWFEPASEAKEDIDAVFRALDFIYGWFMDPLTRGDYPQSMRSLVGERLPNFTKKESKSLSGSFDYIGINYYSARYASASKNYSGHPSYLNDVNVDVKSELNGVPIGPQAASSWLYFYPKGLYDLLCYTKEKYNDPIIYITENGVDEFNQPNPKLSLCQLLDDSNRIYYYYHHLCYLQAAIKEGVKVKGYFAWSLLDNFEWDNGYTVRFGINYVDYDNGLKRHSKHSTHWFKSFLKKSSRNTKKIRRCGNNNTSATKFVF
The assay can be described thus: Enzyme Assay. Particulars: pH 5.6; 37 °C. On the procedure:
The enzyme activity was measured by monitoring the increase in absorbance at 400 nm due to hydrolysis of para-nitrophenyl-beta-glucopyranoside. All assays were carried out in the presence of 0.05M sodium acetate buffer (pH 5.6) and 0.1 mM EDTA at 37 C.
Take `COc1ccc(O[C@@H]2O[C@H](CO)[C@@H](O)[C@H](O)[C@H]2O)c(C(F)F)c1` [Glucosidase inhibitor, 6f]: the Ki – broadly, the dissociation constant of the complex between target and ligand, obtained from inhibition or displacement – came to 900 µM.

For the molecule `COc1cc(C(F)F)ccc1O[C@@H]1O[C@H](CO)[C@@H](O)[C@H](O)[C@H]1O` [Glucosidase inhibitor, 6b], the affinity corresponds to a Ki of 60 µM. This Ki is about 15-fold lower than that of the molecule before.

The molecule `COc1cc(C(F)F)cc(OC)c1O[C@@H]1O[C@H](CO)[C@@H](O)[C@H](O)[C@H]1O` [Glucosidase inhibitor, 6d] displayed a Ki of 1900 µM. Against the preceding molecule, the Ki is about 32-fold higher.

`COc1cc(CF)ccc1O[C@@H]1O[C@H](CO)[C@@H](O)[C@H](O)[C@H]1O` [Glucosidase inhibitor, 11]: the Ki came to 800 µM.

On to `OC[C@H]1O[C@@H](Oc2ccc(C(F)F)cc2)[C@H](O)[C@@H](O)[C@@H]1O` [Glucosidase inhibitor, 6a], for which the Ki worked out at 1700 µM.

On to `CCOc1cc(C(F)F)ccc1O[C@@H]1O[C@H](CO)[C@@H](O)[C@H](O)[C@H]1O` [Glucosidase inhibitor, 6c], for which affinity was put at a Ki of 100 µM.

In turn, `OC[C@H]1O[C@@H](Oc2ccccc2C(F)F)[C@H](O)[C@@H](O)[C@@H]1O` [Glucosidase inhibitor, 6e] registered an inhibition constant Ki of 3700 µM. This Ki is about 37-fold higher than that of the molecule before.
